# Results from patent US6908940B2, “Imidazole compounds and their use as adenosine deaminase inhibitors” (Fujisawa Pharmaceutical Co., Ltd., priority 2000, dated 2005).
# Biological target: T1, Human ADA (Homo sapiens, UniProt P00813)
# T1 construct: made in house
# T1 sequence (P00813 1-363): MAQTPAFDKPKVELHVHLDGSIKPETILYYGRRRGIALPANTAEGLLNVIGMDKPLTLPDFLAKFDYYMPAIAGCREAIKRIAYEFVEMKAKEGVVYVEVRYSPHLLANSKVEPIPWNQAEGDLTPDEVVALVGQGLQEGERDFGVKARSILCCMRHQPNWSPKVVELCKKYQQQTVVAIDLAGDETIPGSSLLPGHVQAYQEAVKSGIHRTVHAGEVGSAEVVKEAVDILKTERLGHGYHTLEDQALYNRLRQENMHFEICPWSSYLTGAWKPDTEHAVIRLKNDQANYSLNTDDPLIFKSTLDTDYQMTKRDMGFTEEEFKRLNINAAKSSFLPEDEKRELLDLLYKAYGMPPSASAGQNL
# Assay: Adenosine Deaminase (ADA) Enzyme Assay
# Format: biochemical
# Conditions: 50% inhibition of Vmax vs vehicle; 0.16 μg/ml ADA, 0.1 mM adenosine, phosphate buffer saline pH 7.4, room temperature, decrease in A265 for 3 minutes
# Protocol: Adenosine Deaminase (ADA) Enzyme Assay
# • 1-{(2S,3R)-2-hydroxy-5-[2-(3-(4-chlorophenyl)propoxy)-phenyl]-3-pentyl}imidazole-4-carboxamide (Example 8) • 1-[(2S,3R)-2-hydroxy-5-(7-chloro-1-naphthyl)-3-pentyl]-imidazole-4-carboxamide (Example 12) Test Method:
# The reaction velocity (V) is measured by a change in absorbance at 265 nm (A265) resulting from the deamination of adenosine. Human ADA was expressed and purified from ADA-deficient bacterial strain. Reaction mixtures of a total volume of 200 μl contained 0.16 μg/ml of ADA and 0.1 mM of adenosine and test compound in 10 mM phosphate buffer saline (pH 7.4). The reaction was started by addition of ADA to a mixture of adenosine and test compound. The reaction was followed at room temperature by recording decrease in A265 for 3 minutes in SPECTRAmax 250 (Molecular Devices, USA) to automatically calculate Vmax. Inhibitory potency of test compound was expressed as IC50 value, the drug concentration required to produce 50% inhibition of Vmax in comparison to vehicle treatment.
smiles,measurement,value
"C[C@H](O)[C@@H](CCc1ccccc1OCCCc1ccc(Cl)cc1)n1cnc(C(N)=O)c1 [Example 8, 1-{(2S,3R)-2-hydroxy-5-[2-(3-(4-chlorophenyl)propoxy)phenyl]-3-pentyl}imidazole-4-carboxamide]",IC50,< 0.02 µM
"C[C@H](O)[C@@H](CCc1cccc2ccc(Cl)cc12)n1cnc(C(N)=O)c1 [Example 12, 1-[(2S,3R)-2-hydroxy-5-(7-chloro-1-naphthyl)-3-pentyl]imidazole-4-carboxamide]",IC50,< 0.02 µM
